Source: patent US7419655B2, “Skin care products” (Kimberly-Clark Worldwide, Inc., priority 2002, dated 2008)
Entries after “also recorded” stand apart in the source; their conditions may differ.

Experiments:
[1] = system: human skin fibroblast cell line (normal human dermal fibroblasts, neonatal); assay: Fibroblast proliferative response, 96-well Cell Titer 96 Aqueous One assay (Example 2, FIG. 2, Table 2); type: cell-based; settings: for effect on cellular proliferation (in words): 5 and 10 ul, versus serum-free DMEM control, one-way ANOVA; for Mean (spectrophotometric absorbance at 490 nm) / Median (spectrophotometric absorbance at 490 nm): 28 hours incubation, n=5, Table 2
Experimental: A stock solution of CNA was prepared with chitosan (0.0297M) and equimolar amounts of ascorbic acid and niacinamide (0.01649M) in water. Test solutions of equimolar ascorbic acid and niacinamide (0.01649M) were prepared separately in water. All the compounds were tested at two doses, 5 and 10 ul with n=5. DMEM was used as a negative control (n=5). The proliferative response of CNA, ascorbic acid and niacinamide, on the human skin fibroblast cell line (Clonetics, Walkersville, Md., normal human dermal fibroblasts, neonatal) was measured in a 96-well assay system using serum-free DMEM (Dulbecco's Modified Eagle's Medium, Sigma Chemical Co.) as a control. Cells were seeded into 96 well plates at a concentration of 1×10^2 cells in 100 μl of DMEM containing 10% fetal bovine serum (FBS, Sigma Chemical Co., St. Louis, Mo.). Plates were incubated for 24 hours at 37° C. in a humidified 5% CO2 atmosphere. After incubation, the medium was aspirated and the wells were rinsed twice with 100 μl of serum-free DMEM. The final rinse was aspirated and 100 ul DMEM serum was added to each well before adding test compounds. All wells were incubated for 28 hours at 37° C. in a humidified, 5% CO2 atmosphere. After incubation, 20 μl of Cell Titer 96 Aqueous One Solution (Promega) was added to all wells. The plates were swirled gently and placed back in the incubator for 90 minutes and spectrophotometric absorbance was read at 490 nm. Statistical analysis of data was performed by using one-way ANOVA. P<0.05 is considered significant while P<0.001 is considered as very very significant.

[2] = system: human skin fibroblast cell line (normal human dermal fibroblasts, neonatal); assay: Fibroblast proliferative response, 96-well Cell Titer 96 Aqueous One assay (Example 1, FIG. 1, Table 1); type: cell-based; settings: for Mean (spectrophotometric absorbance at 490 nm) / Median (spectrophotometric absorbance at 490 nm): 28 hours incubation, n=5, Table 1; for cell growth / cell density (OD), FIG. 1: control OD about 0.6
Experimental: A human skin fibroblast cell line was obtained from Clonetics (Walkersville, Md., normal human dermal fibroblasts, neonatal). Stock solutions of CNA were prepared with chitosan (0.0297M, degree of deacetylation 78.8%, Vanson Inc.) and equimolar amounts of ascorbic acid and niacinamide (0.01649M, Sigma Chemical Co.) in water. Test solutions of chitosan (0.0297M) and niacinamide ascorbate (0.01649M) were separately prepared. All the compounds were tested at two doses, 5 and 10 ul with n=5. DMEM was used as a negative control (n=5). The proliferative response of CNA, chitosan and NA, on the human skin fibroblast cell was measured in a 96-well assay system using serum-free DMEM (Dulbecco's Modified Eagle's Medium, Sigma Chemical Co.) as a control. Cells were seeded into 96 well plates at a concentration of 1×10^3 cells in 100 μl of DMEM containing 10% fetal bovine serum (FBS, Sigma Chemical Co., St. Louis, Mo.). Plates were incubated for 24 hours at 37° C. in a humidified 5% CO2 atmosphere. After incubation, the medium was aspirated and the wells were rinsed twice with 100 μl of serum-free DMEM. The final rinse was aspirated and 100 ul DMEM serum was added to each well before adding test compounds. All wells were incubated for 28 hours at 37° C. in a humidified, 5% CO2 atmosphere. After incubation, 20 μl of Cell Titer 96 Aqueous One Solution (Promega) was added to all wells. The plates were swirled gently and placed back in the incubator for 90 minutes and spectrophotometric absorbance was read at 490 nm. Statistical analysis of data was performed by using one-way ANOVA. P<0.05 is considered significant while P<0.001 is considered as very very significant.

[3] = group suffix 1 (doses were 5 and 10 ul)
[4] = group suffix 2 (doses were 5 and 10 ul)

SMILES	effect on cellular proliferation (in words) [1]	Mean (spectrophotometric absorbance at 490 nm) [1, 3]	Median (spectrophotometric absorbance at 490 nm) [1, 3]	Mean (spectrophotometric absorbance at 490 nm) [1, 4]	Median (spectrophotometric absorbance at 490 nm) [1, 4]	effect on fibroblast growth / proliferation (in words) ([2]; 5 and 10 ul, versus serum-free DMEM control, one-way ANOVA)	Mean (spectrophotometric absorbance at 490 nm) ([2]; 5 ul dose)	Median (spectrophotometric absorbance at 490 nm) ([2]; 5 ul dose)	cell growth / cell density (OD), FIG. 1 ([2]; 5 μl)	Mean (spectrophotometric absorbance at 490 nm) ([2]; 10 ul dose)	Median (spectrophotometric absorbance at 490 nm) ([2]; 10 ul dose)	cell growth / cell density (OD), FIG. 1 ([2]; 10 μl)
O=C1O[C@H]([C@@H](O)CO)C(O)=C1O [Ascorbic acid, ascorbic acid]	some cell proliferating activity	0.4002	0.3990	0.4598	0.4510							
NC(=O)c1cccnc1.O=C1O[C@H]([C@@H](O)CO)C(O)=C1O [NA, niacinamide ascorbate]						appeared to inhibit cellular growth in a dose dependent manner; also recorded: appears depress fibroblast cell growth	0.5650	0.5630	about 0.58	0.4826	0.4870	about 0.50
NC(=O)c1cccnc1 [Niacinamide, niacinamide]	did not show any statistical difference	0.3108	0.3140	0.3048	0.3070							
